Data on 24 compounds can be found in patent US10028961B2, “Therapeutically active compounds and their methods of use” (AGIOS PHARMACEUTICALS, INC., priority 2013, dated 2018).

SMILES strings stand for the structures. Like-named read-outs stand apart in the source and are kept apart here. A value given as a limit tells only on which side of the number the result lay.

The target in assay [1] is IDH1 wt/IDH1 R132H heterodimer (Homo sapiens (Human), UniProt O75874, R132H). As to the kind of experiment: In vitro assay for IDH1m R132H inhibitors, IDH1 wt/IDH1 R132H heterodimer, NADPH depletion (diaphorase/resazurin). Type of assay: biochemical. The method, boiled down:
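Purified IDH1wt-his/IDH1R132H-flag heterodimer (sf9 co-expression) pre-incubated 1 hr at room temperature with compound and NADPH before α-KG addition. Remaining NADPH read by diaphorase/resazurin conversion to fluorescent resorufin, 5 min at 25° C. Compounds diluted 1:50 from DMSO; IC50 determined.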
On the technique in general: The colour change of resazurin is a common sign of viable cells or microbes.

Assay [2] concerns the target IDH1-R132H homodimer enzyme (Homo sapiens (Human), UniProt O75874, R132H). The assay can be described thus: In vitro assay IDH1-R132H homodimer, NADPH depletion assay with NADPH/NADP preincubation. The following applies: 5 μM NADPH and 37.5 μM NADP. The format is biochemical. The procedure:
The following describes the experimental procedures that can be used to obtain data on columns 3 and 5 of Table 5.
A test compound is prepared as 10 mM stock in DMSO and diluted to 50× final concentration in DMSO, for a 50 μl reaction mixture. IDH enzyme activity converting alpha-ketoglutarate to 2-hydroxyglutaric acid is measured using a NADPH depletion assay. In the assay the remaining cofactor is measured at the end of the reaction with the addition of a catalytic excess of diaphorase and resazurin, to generate a fluorescent signal in proportion to the amount of NADPH remaining. […] The reaction is started with the addition of 10 μl of Substrate Mix ([…], 5 mM alpha-ketoglutarate, in Assay Buffer) and the mixture is incubated for 60 minutes at room temperature.

In assay [3] the test system is HT1080 cells. As to the kind of experiment: Cellular assay for IDH1m R132C inhibitors, 2-HG by LC-MS in HT1080 cells. Type of assay: cell-based. The following applies: Homo sapiens, HT-1080. The procedure: The following describes the experimental procedures that can be used to obtain data on column 5 of Table 4.
Cells (HT1080 or U87MG) are grown in T125 flasks in DMEM containing 10% FBS, 1× penicillin/streptomycin and 500 ug/mL G418 (present in U87MG cells only). They are harvested by trypsin and seeded into 96 well white bottom plates at a density of 5000 cell/well in 100 ul/well in DMEM with 10% FBS. No cells are placed in columns 1 and 12. Cells are incubated overnight at 37° C. in 5% CO2. The next day test compounds are made up at 2× the final concentration and 100 ul are added to each cell well. The final concentration of DMSO is 0.2% and the DMSO control wells are plated in row G. The plates are then placed in the incubator for 48 hours. At 48 hours, 100 ul of media is removed from each well and analyzed by LC-MS for 2-HG concentrations. The cell plate is placed back in the incubator for another 24 hours. At 72 hours post compound addition, 10 mL/plate of Promega Cell Titer Glo reagent is thawed and mixed. The cell plate is removed from the incubator and allowed to equilibrate to room temperature. Then 100 ul of Promega Cell Titer Glo reagent is added to each well of media. The cell plate is then placed on an orbital shaker for 10 minutes and then allowed to sit at room temperature for 20 minutes. The plate is then read for luminescence with an integration time of 500 ms.
HT1080 cells are maintained in RPMI containing 10% FBS, 1× penicillin/streptomycin. […] The next day compounds are prepared in 100% DMSO and then diluted in media for a final concentration of 0.2% DMSO. Media is removed from the cell plates and 200 μL of the compound dilutions are added to each well. […] The cell plates are then allowed to incubate another 24 hours.

The subject of assay [4] is U87MG pLVX-IDH2 R140Q-neo cells. As to the kind of experiment: U87MG pLVX-IDH2 R140Q-neo cell based assay, 2-HG by LC-MS. The conditions noted are these: Homo sapiens, U-87 MG.
The target in assay [5] is IDH2 R140Q (Homo sapiens (Human), UniProt P48735, R140Q). As to the kind of experiment: In vitro assay for IDH2m R140Q inhibitors, cofactor depletion assay. Type of assay: biochemical. The conditions noted are these: IDH2 R140Q enzyme. The method, boiled down: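 Remaining cofactor measured fluorimetrically: diaphorase/resazurin Stop Mix […], halting the reaction. Before that, mutant enzyme and compound sat 1 h at RT, then substrate mix (4 μM NADPH, 1.6 mM α-KG) was added for 16 h at RT.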
Sequence of IDH2 R140Q (P48735 40-452 R140Q): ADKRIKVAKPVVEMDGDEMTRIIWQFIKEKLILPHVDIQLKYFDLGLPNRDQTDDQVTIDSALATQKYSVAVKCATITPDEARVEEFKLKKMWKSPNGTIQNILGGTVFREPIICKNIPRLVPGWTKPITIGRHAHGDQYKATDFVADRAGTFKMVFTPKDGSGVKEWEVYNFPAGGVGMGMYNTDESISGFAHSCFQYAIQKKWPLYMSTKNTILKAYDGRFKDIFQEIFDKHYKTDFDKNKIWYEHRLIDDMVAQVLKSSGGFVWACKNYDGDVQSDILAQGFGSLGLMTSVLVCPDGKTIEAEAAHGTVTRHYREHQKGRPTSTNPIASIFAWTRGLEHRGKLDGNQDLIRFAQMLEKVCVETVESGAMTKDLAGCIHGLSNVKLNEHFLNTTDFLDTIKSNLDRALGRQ

In assay [6] the test system is Neurosphere cells (TS603). As to the kind of experiment: Cellular assay for IDH1m R132H inhibitors, 2-HG by LC-MS in neurosphere cells (TS603). The format is cell-based. The conditions noted are these: 2-HG in media at 48 hours. Put shortly: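 TS603 neurosphere cells in NeuroCult medium were dosed with compound (0.25% DMSO final) at 37 C, 5% CO2. After 48 hours, medium 2-HG was measured by LC-MS. At 72 hours, viability was read by CellTiter-Glo luminescence.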

The mark [7] stands for this setting: IDH1 wt/IDH1 R132H heterodimer, 300 μM NADP (saturated), read-out: IDH1 wt/R132H NADPH/NADP IC50 saturated.
The mark [8] stands for this setting: IDH1 wt/R132H heterodimer, NADPH/NADP, not saturated, read-out: IDH1 wt/R132H NADPH/NADP IC50 not saturated.

Sequence of IDH1-R132H homodimer enzyme (O75874 whole entry R132H): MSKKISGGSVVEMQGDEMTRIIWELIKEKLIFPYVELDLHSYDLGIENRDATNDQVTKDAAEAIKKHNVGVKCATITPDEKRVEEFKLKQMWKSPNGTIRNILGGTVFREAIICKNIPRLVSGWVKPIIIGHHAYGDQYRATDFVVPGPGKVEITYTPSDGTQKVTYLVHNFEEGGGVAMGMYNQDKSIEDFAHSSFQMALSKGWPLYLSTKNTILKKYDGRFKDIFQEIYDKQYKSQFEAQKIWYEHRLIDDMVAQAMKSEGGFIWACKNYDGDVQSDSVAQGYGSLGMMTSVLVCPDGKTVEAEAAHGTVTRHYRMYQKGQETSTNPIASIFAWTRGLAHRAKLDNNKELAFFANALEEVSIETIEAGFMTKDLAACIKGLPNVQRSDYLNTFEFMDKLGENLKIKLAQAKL
Sequence of IDH1 wt/IDH1 R132H heterodimer (O75874 whole entry R132H): as above
Sequence of IDH1 wt/IDH1 R132H heterodimer (O75874 whole entry, stated change not applied): as the sequence (O75874 whole entry R132H) above, with H132R counted along it

Consider `Fc1cc(F)cc(Nc2nc(NC3CC(F)(F)C3)nc(-c3nc(C(F)(F)F)cs3)n2)c1` [Compound 413], for which the IC50 is under 50 nM in assay [1] (setting [7]), under 50 nM in assay [2], 100 to 1000 nM in assay [3] and under 50 nM in assay [4].
Take `Nc1ccc(F)c(-c2nc(Nc3cc(F)cc(F)c3)nc(NC3CCC(F)(F)C3)n2)n1` (stereo not shown) [Compound 153]: the IC50 is under 50 nM in assay [1] (setting [8]); under 50 nM in assay [2]; under 50 nM in assay [5]; 50 to 100 nM in assay [3]; under 50 nM in assay [4].
`C[C@@H](Nc1nc(N[C@H](C)C(F)(F)F)nc(-c2cncc(C(F)(F)F)n2)n1)C(F)(F)F` [Compound 386]: the IC50 in assay [1] (setting [7]), in assay [5], in assay [3], in assay [4] and in assay [6] was under 50 nM in each case.
In the case of `N#Cc1cc(Nc2nc(N[C@H]3CCC(F)(F)C3)nc(-n3ccc(C(F)(F)F)n3)n2)ccn1` [Compound 381], the IC50 in assay [1] (setting [7]) is under 50 nM; in assay [5], under 50 nM; in assay [3] it was 100 to 1000 nM; in assay [4] it was under 50 nM; in assay [6], under 50 nM.
Turning to `FC1(F)CCC(Nc2nc(NC3CN(c4cccnc4)C3)nc(-c3cccc(C(F)(F)F)n3)n2)C1` (stereo not shown) [Compound 243], the IC50 is 50 to 100 nM in assay [1] (setting [8]), over 1000 nM in assay [2], 100 to 1000 nM in assay [3] and under 50 nM in assay [6].
As to `CC(C)(O)CNc1nc(Nc2cc(F)cc(F)c2)nc(-n2ccc(C(F)(F)F)n2)n1` [Compound 235], the IC50 in assay [1] (setting [8]) was under 50 nM; in assay [5], under 50 nM; in assay [3], 100 to 1000 nM; in assay [4] it was under 50 nM; in assay [6], under 50 nM.
For the compound `FC(F)c1ccnc(-c2nc(NC3CC(F)(F)C3)nc(NC3CC(F)(F)C3)n2)n1` [Compound 411], the IC50 is 100 to 1000 nM in assay [1] (setting [7]); 50 to 100 nM in assay [5]; 100 to 1000 nM in assay [3]; 50 to 100 nM in assay [4]; under 50 nM in assay [6].
`FC1(F)CCC(Nc2nc(Nc3cncc(C(F)(F)F)c3)nc(-c3cccc(C(F)(F)F)n3)n2)C1` (stereo not shown) [Compound 405]: the IC50 in assay [1] (setting [7]) is 50 to 100 nM; in assay [5] it was under 50 nM; in assay [3] it was 50 to 100 nM; in assay [4] it was under 50 nM; in assay [6], under 50 nM.
As for `N#CC1(c2cc(Nc3nc(N[C@@H]4CCC(F)(F)C4)nc(-c4cncc(C(F)(F)F)n4)n3)ccn2)CC1` [Compound 378], the IC50 in assay [1] (setting [7]) is under 50 nM; in assay [5] it was under 50 nM; in assay [3], 50 to 100 nM; in assay [4] it was under 50 nM; in assay [6], under 50 nM.
Take `CC[C@@H](Nc1nc(N[C@H](CC)C(F)(F)F)nc(-c2cccc(Cl)n2)n1)C(F)(F)F` [Compound 104]: the IC50 in assay [1] (setting [8]), in assay [2], in assay [5], in assay [3] and in assay [4] was under 50 nM throughout.
As for `CC(C)(O)CNc1nc(NC2CCC(F)(F)CC2)nc(-c2cccc(C(F)(F)F)n2)n1` [Compound 287], the IC50 was 100 to 1000 nM in assay [1] (setting [8]); over 1000 nM in assay [2]; 100 to 1000 nM in assay [5]; over 1000 nM in assay [3]; 100 to 1000 nM in assay [4].
`C[C@@H](Nc1nc(N[C@H](C)C(F)(F)F)nc(-c2csc(C(F)(F)F)n2)n1)C(F)(F)F` [Compound 114]: the IC50 in assay [1] (setting [8]), in assay [5], in assay [3], in assay [4] and in assay [6] was under 50 nM in each case.
`CC(F)(F)c1cccc(-c2nc(NC3CCC(F)(F)CC3)nc(NC3CCC(F)(F)CC3)n2)n1` [Compound 218]: the IC50 was under 50 nM in assay [1] (setting [8]); under 50 nM in assay [5]; 100 to 1000 nM in assay [3]; under 50 nM in assay [4]; under 50 nM in assay [6].
Consider `FC1(F)CCC(Nc2nc(NC3CN(c4ccccn4)C3)nc(-c3cccc(C(F)(F)F)n3)n2)C1` (stereo not shown) [Compound 238], for which the IC50 in assay [1] (setting [8]) is under 50 nM; in assay [2], 100 to 1000 nM; in assay [3], 100 to 1000 nM; in assay [6] it was under 50 nM.
Consider `O=C1C[C@H](Nc2nc(NC3CCC(F)(F)C3)nc(-c3cccc(C(F)(F)F)n3)n2)CN1c1ccccn1` (stereo partly shown) [Compound 239], for which the IC50 in assay [1] (setting [8]) is under 50 nM; in assay [2], 100 to 1000 nM; in assay [3] it was 100 to 1000 nM; in assay [6] it was under 50 nM.
In the case of `N#CC1(c2cc(Nc3nc(NC4CCC(F)(F)CC4)nc(-c4cncc(C(F)(F)F)n4)n3)ccn2)CC1` [Compound 394], the IC50 in assay [1] (setting [7]) is under 50 nM; in assay [5], under 50 nM; in assay [3], 100 to 1000 nM; in assay [4], under 50 nM; in assay [6], under 50 nM.
In the case of `CC(C)(O)CNc1nc(Nc2cc(F)cc(Cl)c2)nc(-c2cccc(C(C)(F)F)n2)n1` [Compound 236], the IC50 in assay [1] (setting [8]) is under 50 nM; in assay [2] it was 100 to 1000 nM; in assay [5], under 50 nM; in assay [3] it was over 1000 nM; in assay [4], under 50 nM.
`CC(Nc1nc(NC(C)C(F)(F)F)nc(-c2nc(C(F)(F)F)cs2)n1)C(F)(F)F` (stereo not shown) [Compound 404]: the IC50 in assay [1] (setting [7]), in assay [5], in assay [3], in assay [4] and in assay [6] was under 50 nM throughout.
For the compound `FC1(F)CC(Nc2nc(Nc3ccnc(C(F)(F)F)c3)nc(-c3nc(C(F)(F)F)cs3)n2)C1` [Compound 388], the IC50 in assay [1] (setting [7]) is under 50 nM; in assay [5] it was under 50 nM; in assay [3], 50 to 100 nM; in assay [4], under 50 nM; in assay [6] it was under 50 nM.
With `N#CC1(c2cc(Nc3nc(NC4CC5(C4)CC(F)(F)C5)nc(-c4cncc(C(F)(F)F)n4)n3)ccn2)CC1` [Compound 385], the IC50 in assay [1] (setting [7]) is 50 to 100 nM; in assay [5], under 50 nM; in assay [3], 100 to 1000 nM; in assay [4], under 50 nM; in assay [6], under 50 nM.
On to `FC(F)c1cncc(-c2nc(NC3CCC(F)(F)C3)nc(NC3CCC(F)(F)C3)n2)n1` (stereo not shown) [Compound 408], for which the IC50 in assay [1] (setting [7]), in assay [5], in assay [3], in assay [4] and in assay [6] was under 50 nM throughout.
Take `CC(C)(O)CNc1nc(NC2CCC(F)(F)C2)nc(-c2cccc(C(F)(F)F)n2)n1` (stereo not shown) [Compound 264]: the IC50 in assay [1] (setting [8]) fell in the range of 100 to 1000 nM; in assay [2], 100 to 1000 nM; in assay [3], 100 to 1000 nM; in assay [6], 50 to 100 nM.
Turning to `FC(F)c1csc(-c2nc(NC3CC(F)(F)C3)nc(NC3CC(F)(F)C3)n2)n1` [Compound 403], the IC50 in assay [1] (setting [7]), in assay [5], in assay [3], in assay [4] and in assay [6] was under 50 nM each time.
In the case of `FC(F)(F)c1cc(Nc2nc(NCC3CC3)nc(-n3ccc(C(F)(F)F)n3)n2)ccn1` [Compound 407], the IC50 in assay [1] (setting [7]) is 100 to 1000 nM; in assay [5], under 50 nM; in assay [3] it was 100 to 1000 nM; in assay [4], under 50 nM; in assay [6] it was under 50 nM.
